# Assay results published in patent US12303509B2, “Compounds for the treatment of BRAF-associated diseases and disorders” (Pfizer Inc., priority 2020, dated 2025).
# Where a name gives a salt, the structure may show the parent alone.
# Tests used:
# A375 cells = test: Cellular phospho-ERK inhibition assay in A375 cells; type: cell-based; settings: Homo sapiens, A-375, A375 cells (head prints A357), 2 hours treatment, read-out: A357 cell IC50
# Experimental: (§1) A375 and H1755 cells were obtained from the American Type Culture Collection (ATCC, Rockville, MD). A375 cells were maintained in DMEM growth medium containing 10% FBS. H1755 cells were maintained in RPMI growth medium containing 10% FBS.
# (§2) Cells were harvested according to standard protocols, counted and plated onto flat-bottom, 96-well tissue culture plates (Costar #3599) at 2.5×10^4 cells/well for A375 cells and 1.5×10^4 cells/well for H1755 cells in 100 μL/well of growth medium containing 10% FBS. After an overnight incubation at 37° C. with 5% CO2 cells were treated for 2 hours at 37° C., 5% CO2 with compounds prepared as a 9-point, 1:3.33 fold dilution series with final compound concentrations ranging from 66 pM-10 μM and a constant DMSO concentration of 0.25%. Control wells contained either 0.25% DMSO alone (uninhibited control) or 10 μM binimetinib (complete inhibition control). The levels of phosphorylated ERK are determined using an In Cell Western protocol: following compound incubation, growth medium was discarded, and cells were fixed with 0.4% formaldehyde in PBS for 20 minutes at room temperature. Cells were permeabilized with 100% methanol for 10 minutes at room temperature. Plates were washed with PBS containing 0.05% Tween-20 and blocked for 1 hour at room temperature with LI-COR Blocking Buffer (LI-COR Biosciences; Cat #927-40000). Plates were then incubated for 2 hours at room temperature with 50 μL of a 1:400 dilution of anti-phospho-ERK1/2 (Thr202/Tyr204) (Cell Signaling; Cat #9101) and a 1:1000 dilution of anti-GAPDH (Millipore; Cat #MAB374) in LI-COR blocking buffer containing 0.05% Tween-20. Plates were washed with PBS containing […] Tween-20 then incubated at room temperature for 1 hour with 50 μL of a 1:1000 dilution of anti-rabbit AlexaFluor 680 (Life Technologies; Cat #A21109) and a 1:1000 dilution of anti-mouse IRDye 800CW (LI-COR; Cat #926-32210) in LI-COR blocking buffer containing 0.05% Tween-20. Plates were analyzed by reading on an Odyssey CLx infrared scanner. For each well, the phospho-ERK signal was normalized to the GAPDH signal and converted to POC using the following equation:
# (§3) [formula] • Where: • Xmax Average Uninhibited Controls • Xmin Average Complete Inhibition Controls IC50 values were then calculated using a 4-parameter fit in XLfit software and are provided in Table A1.
# [1] = molecular target: full-length FLAG-tagged B-Raf(V600E) (Homo sapiens (Human), UniProt P15056, V600E); test: BRAF V600E enzyme assay (TR-FRET competitive displacement); type: binding; settings: averaged IC50; TR-FRET tracer displacement, 60 min
# Experimental: A competitive displacement assay was configured for B-Raf that monitors the amount of a fluorescently-tagged “tracer” bound to B-Raf via TR-FRET from an anti-tag Eu-labeled antibody also bound to B-Raf. For full-length FLAG-tagged B-Raf(V600E), the assay mixtures consisted of 25 mM K^+HEPES, pH 7.4, 10 mM MgCl2, 0.01% Triton X-100, 1 mM DTT, 2% DMSO (from compound), 50 nM Tracer 1710 (ThermoFisher, PR9176A), 0.5 nM Eu anti-FLAG (M2)-cryptate Ab (Cisbio, 61FG2KLB) and 5 nM full-length, N-terminally FLAG-tagged B-Raf(V600E) (Origene Technologies, TP700031. Compounds were typically diluted in DMSO across an 11-point dosing range created using a 3-fold serial dilution protocol at a top dose of 10 μM. The assay was run in 384-well, polystyrene, low-volume, non-treated, white microtiter plates (Costar 4512) in a final volume of 12 μL. Low control wells included 1 μM of a potent B-Raf inhibitor as a control. The assays were incubated at ambient temperature (typically 22° C.) for 60 min and then read on a PerkinElmer EnVision microplate reader using standard TRF settings (λEx=320 nm, λEm=615 & 665 nm). The ratioed counts (665 nm/615 nm) were converted to percent of control (POC) using the following equation:
# [formula] • where: • Xmax Average Uninhibited Controls • Xmin Average Background
# A 4-parameter logistic model was the fit to the POC data for each compound. From that fit, the IC50 was estimated and is defined as the concentration of compound at which the best-fit curve crosses 50 POC.
# H1755 cells = test: Cellular phospho-ERK inhibition assay in H1755 cells; type: cell-based; settings: Homo sapiens, NCI-H1755, 2 hours treatment, read-out: H1755 Cell IC50
# Experimental: as §1, §2, §3
# BCRP = BCRP (Homo sapiens (Human), UniProt Q9UNQ0); test: BCRP MDCKII permeability assay: efflux ratio; type: in vitro ADME; settings: dog
# P-gp (MDR1) = P-gp (MDR1) (Homo sapiens (Human), UniProt P08183); test: MDR1 LLC-PK1 permeability assay: efflux ratio; type: in vitro ADME; settings: pig
# Excerpt: (§4) Final organic concentration in the assay was 1%.
# [2] = MDR1 LLC-PK1 and BCRP MDCKII permeability assay: permeability coefficient (Papp); type: in vitro ADME
# Excerpt: as §4
# Chain of P-gp (MDR1) (P08183 whole entry, species assumed): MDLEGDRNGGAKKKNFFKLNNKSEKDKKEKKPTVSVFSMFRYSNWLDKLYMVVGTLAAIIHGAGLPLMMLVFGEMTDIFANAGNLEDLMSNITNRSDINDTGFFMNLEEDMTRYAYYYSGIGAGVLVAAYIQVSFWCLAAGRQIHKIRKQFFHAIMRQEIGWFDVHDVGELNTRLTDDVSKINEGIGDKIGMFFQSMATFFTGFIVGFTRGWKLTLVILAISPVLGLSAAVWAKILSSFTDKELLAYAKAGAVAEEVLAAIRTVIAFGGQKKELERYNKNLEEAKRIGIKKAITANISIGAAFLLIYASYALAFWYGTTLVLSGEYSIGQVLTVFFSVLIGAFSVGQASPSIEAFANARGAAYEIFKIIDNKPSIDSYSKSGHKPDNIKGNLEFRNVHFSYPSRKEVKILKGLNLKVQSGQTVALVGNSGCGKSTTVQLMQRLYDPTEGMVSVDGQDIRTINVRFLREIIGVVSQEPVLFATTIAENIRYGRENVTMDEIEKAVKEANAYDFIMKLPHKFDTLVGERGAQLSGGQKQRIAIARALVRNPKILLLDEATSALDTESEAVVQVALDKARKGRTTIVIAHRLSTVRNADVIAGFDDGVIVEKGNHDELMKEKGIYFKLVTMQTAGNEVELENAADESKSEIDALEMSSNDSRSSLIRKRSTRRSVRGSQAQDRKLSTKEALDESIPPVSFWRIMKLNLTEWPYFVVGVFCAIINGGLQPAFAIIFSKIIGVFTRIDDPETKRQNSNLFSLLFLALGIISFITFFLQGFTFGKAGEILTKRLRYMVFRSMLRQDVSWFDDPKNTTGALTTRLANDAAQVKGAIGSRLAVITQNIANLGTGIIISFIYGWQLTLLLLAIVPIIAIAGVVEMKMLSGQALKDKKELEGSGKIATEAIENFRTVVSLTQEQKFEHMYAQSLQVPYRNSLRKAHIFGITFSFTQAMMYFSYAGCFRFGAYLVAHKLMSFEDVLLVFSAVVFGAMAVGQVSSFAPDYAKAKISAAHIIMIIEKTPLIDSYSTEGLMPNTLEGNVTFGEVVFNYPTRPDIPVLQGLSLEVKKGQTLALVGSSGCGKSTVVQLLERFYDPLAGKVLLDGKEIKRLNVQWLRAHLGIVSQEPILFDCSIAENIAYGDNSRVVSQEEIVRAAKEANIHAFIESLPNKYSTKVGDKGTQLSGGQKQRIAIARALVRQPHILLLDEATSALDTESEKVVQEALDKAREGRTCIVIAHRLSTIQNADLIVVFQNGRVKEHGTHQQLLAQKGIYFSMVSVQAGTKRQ
# Chain of full-length FLAG-tagged B-Raf(V600E) (P15056 whole entry V600E): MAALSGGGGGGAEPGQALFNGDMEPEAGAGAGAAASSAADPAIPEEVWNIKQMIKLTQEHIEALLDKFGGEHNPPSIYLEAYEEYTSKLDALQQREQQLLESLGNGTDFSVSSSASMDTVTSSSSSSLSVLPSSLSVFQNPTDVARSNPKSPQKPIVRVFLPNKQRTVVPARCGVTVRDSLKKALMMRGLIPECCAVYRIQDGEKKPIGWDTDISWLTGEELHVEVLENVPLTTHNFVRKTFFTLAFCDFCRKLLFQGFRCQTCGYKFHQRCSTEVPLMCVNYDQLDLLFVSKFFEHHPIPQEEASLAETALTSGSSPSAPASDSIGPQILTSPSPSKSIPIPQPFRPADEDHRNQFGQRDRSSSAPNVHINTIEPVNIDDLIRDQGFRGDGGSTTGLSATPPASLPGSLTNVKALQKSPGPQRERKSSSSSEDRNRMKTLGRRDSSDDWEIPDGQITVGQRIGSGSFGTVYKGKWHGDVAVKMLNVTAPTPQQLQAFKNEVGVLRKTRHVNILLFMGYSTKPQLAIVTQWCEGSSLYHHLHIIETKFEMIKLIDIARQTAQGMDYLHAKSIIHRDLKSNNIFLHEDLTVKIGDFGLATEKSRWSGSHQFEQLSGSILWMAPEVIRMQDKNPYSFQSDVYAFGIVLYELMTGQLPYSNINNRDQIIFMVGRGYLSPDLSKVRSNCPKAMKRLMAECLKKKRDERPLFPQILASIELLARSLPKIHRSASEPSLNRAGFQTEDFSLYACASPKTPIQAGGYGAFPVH
# Chain of BCRP (Q9UNQ0 whole entry): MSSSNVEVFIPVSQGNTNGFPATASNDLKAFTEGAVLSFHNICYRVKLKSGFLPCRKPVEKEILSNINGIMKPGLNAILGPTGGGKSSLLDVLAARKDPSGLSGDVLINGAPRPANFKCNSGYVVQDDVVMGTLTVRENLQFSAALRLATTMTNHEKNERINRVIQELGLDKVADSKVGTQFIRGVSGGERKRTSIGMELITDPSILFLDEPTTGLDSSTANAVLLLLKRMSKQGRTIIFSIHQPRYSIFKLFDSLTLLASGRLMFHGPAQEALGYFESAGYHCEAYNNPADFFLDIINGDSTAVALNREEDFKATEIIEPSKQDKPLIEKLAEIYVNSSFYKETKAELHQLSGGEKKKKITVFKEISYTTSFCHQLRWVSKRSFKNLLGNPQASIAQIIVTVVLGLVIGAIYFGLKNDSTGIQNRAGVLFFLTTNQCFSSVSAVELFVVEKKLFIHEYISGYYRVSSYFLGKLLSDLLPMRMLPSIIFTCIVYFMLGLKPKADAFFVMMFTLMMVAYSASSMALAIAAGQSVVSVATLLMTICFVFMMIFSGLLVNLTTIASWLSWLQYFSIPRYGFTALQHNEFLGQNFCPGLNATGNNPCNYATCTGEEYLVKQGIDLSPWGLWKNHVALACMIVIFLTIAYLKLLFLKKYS
Structure (SMILES),IC50 (A375 cells) [nM],IC50 [1] [nM],IC50 (H1755 cells) [nM],"efflux ratio at 2 h, 1 µM (BCRP)","efflux ratio at 2 h, 1 µM (P-gp (MDR1))","Papp at 2 h, 1 µM [2] [×10⁻⁶ cm/s]"
"Cc1c(Nc2c(F)c(F)cc(NS(=O)(=O)N3CC4CC4C3)c2Cl)ccc2ncn(C)c(=O)c12 (centres unmarked) [Example 102, N-(2-chloro-3-((3,5-dimethyl-4-oxo-3,4-dihydroquinazolin-6-yl)amino)-4,5-difluorophenyl)-3-azabicyclo[3.1.0]hexane-3-sulfonamide]",73,1,702,–,–,–
"CO[C@H]1CN(S(=O)(=O)Nc2cc(F)c(F)c(Nc3ccc4ncn(C)c(=O)c4c3C)c2Cl)C[C@H]1F (relative stereo) [Example 100, cis-N-(2-chloro-3-((3,5-dimethyl-4-oxo-3,4-dihydroquinazolin-6-yl)amino)-4,5-difluorophenyl)-3-fluoro-4-methoxypyrrolidine-1-sulfonamide]",47,6,293,–,–,–
"CCOC1CN(S(=O)(=O)Nc2ccc(F)c(Nc3ccc4ncn(C)c(=O)c4c3F)c2Cl)C1 [Example 142, N-(2-chloro-4-fluoro-3-((5-fluoro-3-methyl-4-oxo-3,4-dihydroquinazolin-6-yl)amino)phenyl)-3-ethoxyazetidine-1-sulfonamide]",20,24,–,2.5,3.2,21
"COC1CN(S(=O)(=O)Nc2ccc(F)c(Oc3ccc4ncn(C)c(=O)c4c3F)c2Cl)C1 [Example 123, N-(2-chloro-4-fluoro-3-((5-fluoro-3-methyl-4-oxo-3,4-dihydroquinazolin-6-yl)oxy)phenyl)-3-methoxyazetidine-1-sulfonamide]",5,4,–,5.4,2.5,32
"Cc1c(Nc2c(F)ccc(NS(=O)(=O)N3C[C@H](F)[C@@H](F)C3)c2Cl)ccc2ncn(C)c(=O)c12 (relative stereo) [Example 85, (trans)-N-(2-chloro-3-((3,5-dimethyl-4-oxo-3,4-dihydroquinazolin-6-yl)amino)-4-fluorophenyl)-3,4-difluoropyrrolidine-1-sulfonamide]",178,52,–,0.9,1.7,26
Cc1c(Nc2c(F)ccc(NS(=O)(=O)N3CC4CC4(C)C3)c2Cl)ccc2ncn(C)c(=O)c12 (centres unmarked) [Example 88],203,27,–,0.6,1.2,25
"CCOC1CN(S(=O)(=O)Nc2ccc(F)c(Nc3ccc4ncn(C)c(=O)c4c3Cl)c2Cl)C1 [Example 141, N-(2-chloro-3-((5-chloro-3-methyl-4-oxo-3,4-dihydroquinazolin-6-yl)amino)-4-fluorophenyl)-3-ethoxyazetidine-1-sulfonamide]",23,20,–,2.2,1.7,29
"Cc1c(Nc2c(F)ccc(NS(=O)(=O)N3CCC4(CC4)C3)c2Cl)ccc2ncn(C)c(=O)c12 [Example 82, N-(2-chloro-3-((3,5-dimethyl-4-oxo-3,4-dihydroquinazolin-6-yl)amino)-4-fluorophenyl)-5-azaspiro[2.4]heptane-5-sulfonamide trifluoroacetate]",193,69,–,1,1.2,13
"Cc1c(Nc2c(F)ccc(NS(=O)(=O)N3CCOCC3)c2Cl)ccc2ncn(C)c(=O)c12 [Example 79, N-(2-chloro-3-((3,5-dimethyl-4-oxo-3,4-dihydroquinazolin-6-yl)amino)-4-fluorophenyl)morpholine-4-sulfonamide]",138,111,–,1,1.3,28
"COCC1(F)CN(S(=O)(=O)Nc2ccc(F)c(Nc3ccc4ncn(C)c(=O)c4c3C)c2Cl)C1 [Example 145, N-(2-chloro-3-((3,5-dimethyl-4-oxo-3,4-dihydroquinazolin-6-yl)amino)-4-fluorophenyl)-3-fluoro-3-(methoxymethyl)azetidine-1-sulfonamide trifluoroacetate]",25,6,–,2.4,2.6,29
"COC1CN(S(=O)(=O)Nc2ccc(F)c(Oc3ccc4ncn(C)c(=O)c4c3C)c2Cl)C1 [Example 117, N-(2-chloro-3-((3,5-dimethyl-4-oxo-3,4-dihydroquinazolin-6-yl)oxy)-4-fluorophenyl)-3-methoxyazetidine-1-sulfonamide]",23,11,–,1.5,1.5,30
"Cn1cnc2ccc(Oc3c(F)ccc(NS(=O)(=O)N4CC(F)C4)c3Cl)c(F)c2c1=O [Example 122, N-(2-chloro-4-fluoro-3-((5-fluoro-3-methyl-4-oxo-3,4-dihydroquinazolin-6-yl)oxy)phenyl)-3-fluoroazetidine-1-sulfonamide]",3,2,–,7.8,2.3,31
"Cc1c(Nc2c(F)ccc(NS(=O)(=O)N3CC(COC(F)F)C3)c2Cl)ccc2ncn(C)c(=O)c12 [Example 137, N-(2-chloro-3-((3,5-dimethyl-4-oxo-3,4-dihydroquinazolin-6-yl)amino)-4-fluorophenyl)-3-((difluoromethoxy)methyl)azetidine-1-sulfonamide trifluoroacetate]",37,8,–,1.5,2,36
"Cc1c(Oc2c(F)ccc(NS(=O)(=O)N3CC(F)C3)c2Cl)ccc2ncn(C)c(=O)c12 [Example 116, N-(2-chloro-3-((3,5-dimethyl-4-oxo-3,4-dihydroquinazolin-6-yl)oxy)-4-fluorophenyl)-3-fluoroazetidine-1-sulfonamide]",15,4,–,2.1,2.7,34
"Cn1cnc2ccc(Nc3c(F)ccc(NS(=O)(=O)N4CC5(CCC5)C4)c3Cl)c(F)c2c1=O [Example 159, N-(2-chloro-4-fluoro-3-((5-fluoro-3-methyl-4-oxo-3,4-dihydroquinazolin-6-yl)amino)phenyl)-2-azaspiro[3.3]heptane-2-sulfonamide trifluoroacetate]",90,8,–,1.1,1.8,33
